Measured values as given in article PMC9320886, “Daily Intraperitoneal Administration of Rosiglitazone Does Not Improve Lung Function or Alveolarization in Preterm Rabbits Exposed to Hyperoxia” (Pharmaceutics, 2022).
Where two headings read alike, the source gives them in different places.

Key:
newborn rats [1] = system: newborn rats; design: method as in PMID 19262292; conditions: single (24 h) and repeated (7 days) administration, 0.1–8 mg/kg; cited from earlier work
[2] = Caco-2 permeability assay; format: in vitro ADME; conditions: human, basolateral to apical
[3] = plasma protein binding by equilibrium dialysis; format: in vitro ADME; design: fraction unbound at 4 h: dose or concentration left out as unconfirmed; conditions: both sexes, New Zealand White, preterm rabbit plasma (pooled), 37 °C
Description: In vitro plasma protein binding was determined in preterm rabbit plasma (New Zealand White Pooled Gender, BIOIVT, Hicksville, NY, USA) by equilibrium dialysis using Thermo Fisher Scientific Pierce RED rapid equilibrium dialysis devices (Device Inserts 8K MWCO, Thermo Fisher Scientific, Waltham, MA, USA). The assay was performed using a Tecan Evoware robotic system (Männedorf, Switzerland). Test compounds and the positive control were diluted in the pooled plasma (three donors) to a final concentration of […] and then dispensed into the red chamber of the RED device inserts. Phosphate-Buffered Saline (PBS, from Merck KGaA, Darmstadt, Germany) was dispensed into the other side. Upon completion of 4 h of incubation (37 °C under shaking), equal aliquots were removed from each chamber and matrix matched with even volumes of plasma or buffer for LC-MS/MS analyses.
Free and Bound percentages of the compounds were calculated as follows:(1) %Free=Area buffer sample/Area plasma sample×100 (2) % Bound=100−%Free

newborn rats [4] = system: newborn rats; design: method as in PMID 19262292; conditions: daily i.p. doses as low as 0.3 mg/kg; cited from earlier work
[5] = system: patients with type 2 diabetes; conditions: cited from earlier work
premature rabbits = system: premature rabbits; design: method as in PMID 26375032; conditions: 3 mg/kg i.m. to the mothers 24 and 48 h prior to delivery; cited from earlier work
[6] = pharmacokinetic profiling in preterm rabbits; format: in vivo; conditions: rabbit
Description: A total of 30 preterm rabbits with a GA of 28 days were featured in the pharmacokinetic study. […] Surviving pups were randomized to either receive an intratracheal (IT, local delivery, n = 15) or intraperitoneal (IP, systemic delivery, n = 15) dose of 1 mg/kg of RGZ. For IP injections, RGZ (10 mg/mL in DMSO) was dissolved in H2O + 10% Tween-80 at 0.4 mg/mL and then injected in the right flank based on the pups’ body weight. For IT injections, RGZ (50 mg/mL in DMSO; Merck KGaA) was dissolved in 80 mg/mL of Poractant alfa (Curosurf, Chiesi Farmaceutici, Parma, Italy) at 0.4 mg/mL; the injection volume was based on the pups’ body weight (2.5 mL/kg), as previously described.
Before sample collection, all pups were euthanized with a pentothal sodium overdose. All samples were stored at −20 °C until analysis.
Bioanalysis and quantification were performed using a fit-for-purpose LC/MS/MS method developed internally (LC and MS conditions already described in Section 2.2). Plasma and lung homogenate samples (lungs were homogenized with a water/acetonitrile 50/50 mixture) were extracted by means of protein precipitation with 3 volumes of acetonitrile (Sigma-Aldrich Co, St. Louise, MO, USA), and the supernatant was directly injected into the LC/MS/MS system.
The plasma and lung concentrations of RGZ were determined using a calibration curve prepared in the corresponding blank rabbit matrix (range of calibration: 2–500 ng/mL for plasma; 12–6000 ng/g for lungs) and the accuracy of the quantitation was verified using quality controls prepared in the same matrix and back-calculated on the curve.
Pharmacokinetic parameters were calculated by non-compartmental analysis using Phoenix WinNonlin (Certara L.P., Princeton, NJ, USA). The following PK parameters were calculated: Tmax, time of the maximum concentration; Cmax, maximum concentration; t1/2, half-life (calculable only in case of well-defined elimination phase); AUClast, area under the curve up to the last time point.

[7] = system: preterm rabbits exposed to hyperoxia; test: pulmonary efficacy, daily intraperitoneal 10 mg/kg, preterm rabbits exposed to hyperoxia; format: in vivo, rabbit; conditions: daily i.p. 10 mg/kg
Description: At Day 7, invasive lung function testing was performed using the forced oscillation technique with the flexiVent^TM apparatus (SCIREQ, Montréal, Canada). Pups were anesthetized with intramuscular ketamine (35 mg/kg) and xylazine (6 mg/kg) before a tracheostomy was performed, and an 18-gauge metal needle was inserted in the trachea and tied. Pups were connected to the volume-controlled mechanical ventilation of the flexiVent^TM (SCIREQ, tidal volume 10 mL/kg, frequency of 120 breaths/min, PEEP of 3 cmH2O). All pups were euthanized with a pentothal sodium overdose.
The following parameters were measured: total inspiratory capacity, resistance of the respiratory system (Rrs), lung tissue damping (G), lung tissue elastance (H), and static compliance (Cst). Three consistent measurements were obtained, with a coefficient of determination >0.95 as the limit to accept the measurement. The average of three measurements was calculated and used in the analysis.
At necropsy, lungs were removed en bloc and a 20-gauge catheter was secured inside the trachea. Lungs were fixed with 10% buffered formalin (Sigma-Aldrich) for at least 4 h under constant pressure (25 cmH2O) using a custom-made fixation device to ensure homogenous fixation pressures. After removal from pressure fixation, the lungs were first left in formalin for at least 24 h and then transferred to 70% ethanol.
The left lung and the right lungs were embedded in paraffin, cut, and stained with hematoxylin and eosin (H&E) following standard histology protocols. The radial alveolar count (RAC) was performed by an expert pathologist blinded to the experimental design by drawing a perpendicular line from the lumen of the terminal bronchiole to the nearest connective tissue septum or pleural margin and the number of saccules or alveoli crossed by this line was counted as previously described. In total, 20 measurements were performed for each lung pair.
An independent experimental session investigated the efficacy of RGZ at a higher dose (10 mg/kg). In total, 36 preterm rabbits with a GA of 28 days delivered from 4 does were randomized to either the control group (n = 18) or the RGZ 10 mg/kg group (n = 18 per group). Hyperoxia exposure, RGZ administration, animal care and feeding procedures, lung function testing, RAC, and sample collection were performed as described above.

[8] = inhaled or intranasal, plasma, intratracheal 1 mg/kg
[9] = ip, plasma, intraperitoneal 1 mg/kg

In the case of `CN(CCOc1ccc(CC2SC(=O)NC2=O)cc1)c1ccccn1` (stereo not shown) [RGZ, rosiglitazone], the “serum cholesterol and triglycerides levels” value (newborn rats [1]) is listed as “remained unchanged”, the Papp B→A at 2 h, 10 µM ([2]; Caco-2, pH 7.4, with Elacridar (GF120918), concentration not given, with Elacridar, read-out: Papp with Pgp Inhibitor (B–A) (converted)) is listed as 11.4 ×10⁻⁶ cm/s and the Papp B→A at 2 h, 10 µM ([2]; Caco-2, pH 7.4, 2 h, without Pgp inhibitor, read-out: Papp (B–A) (converted)) is listed as 10 ×10⁻⁶ cm/s. The fraction unbound at 4 h [3] was 0.025, the alveolarization (newborn rats [4]) was “enhanced” and the “surfactant synthesis (lamellar body count, SP-B and SP-C expression)” value (newborn rats [4]) was “significantly promoted”. The “plasma triglycerides, large- and medium-sized lipoproteins, low- and high-density cholesterol” value ([5]; adult patients with type 2 diabetes and dyslipidemia) was “increases”, the “risk of heart failure and cardiovascular mortality” value ([5]; diabetic patients) was “increases the risk” and the “hyperoxic lung injury at PND 7” value (premature rabbits) was “attenuated”. The half-life ([6]; inhaled or intranasal, lung, intratracheal 1 mg/kg) was 900 min, the AUC(0-t) [6, 8] was 25800 ng·h/mL and the Cmax [6, 8] was 1950 ng/mL. For the same compound, the Tmax [6, 8] was 15 min, the Cmax ([6]; ip, lung, intraperitoneal 1 mg/kg) was 1020 ng/g and the Cmax [6, 9] was 2440 ng/mL. The Tmax [6, 9] was 15 min, the Kp ([6]; lung and plasma, ip, intraperitoneal 1 mg/kg, read-out: AUCLung/AUCPlasma) was 0.7 and the plasma appearance [7] was “white, dense appearance”. For the same compound, the RAC ([7]; PND 7, vs vehicle) was “no difference between groups”, the inspiratory capacity ([7]; PND 7, vs vehicle, p < 0.01) was “significantly lower” and the “lung compliance (Cst)” value ([7]; PND 7, vs vehicle, p < 0.01) was “significantly lower”. The mortality ([7]; vs vehicle) was “similar”.
